# From patent US9630989B2, “Dipeptide analogs for treating conditions associated with amyloid fibril formation” (Ramot at Tel-Aviv University Ltd., priority 2010, dated 2017)
# Non-standard residues stand in square brackets, D forms with d. Residues, ends and D or L forms follow the SMILES beside them. ξ: configuration not given here. *: point of attachment. dNMeW = CN[C@H](Cc1c[nH]c2ccccc12)C(=O)O; ξNMeW = CNC(Cc1c[nH]c2ccccc12)C(=O)O; ξW = NC(Cc1c[nH]c2ccccc12)C(=O)O; NMeAib = CNC(C)(C)C(=O)O; Boc = CC(C)(C)OC(=O)*; Aib = CC(C)(N)C(=O)O; OtBu = CC(C)(C)O*
# Key:
# P-gp (human PGP) = assay: Membrane permeability in MDCKII/PGP cells; format: in vitro ADME; settings: dog, MDCK-MDR1; MDCKII cells transfected with human PGP; read-out: Permeability MDCKII/PGP AI (asymmetry index)
# Procedure: (§1) Exemplary peptide analogs as disclosed herein were tested for membrane permeability in MDCKII cells transfected with human PGP, for evaluating intestinal absorption. The data obtained in presented in Table 5 below, where A-B is the apical-basolateral flux and AI is the asymmetry index.
# human P-gp (PGP) = assay: Membrane permeability in MDCKII/PGP cells; format: in vitro ADME; settings: dog, MDCK-MDR1; MDCKII cells transfected with human PGP; read-out: Permeability MDCKII/PGP A-B (apical-basolateral flux)
# Procedure: as §1
# [1] = Aqueous solubility at pH 7.4; format: physicochemical; settings: aqueous medium at pH 7.4, aqueous buffer
# Procedure: The aqueous solubility of exemplary dipeptide analogs as disclosed herein was tested at pH 7.4.
# [2] = Metabolic stability in human liver microsomes; format: in vitro ADME; settings: % of compound remaining after 30 minutes
# Procedure: (§2) The metabolic stability of exemplary peptide analogs as disclosed herein was tested in Human and Rat liver microsomes (HLM and RLM, respectively). The obtained data is presented in Table 5 below, as % of compound remaining after 30 minutes). All of the peptides were found sufficiently stable.
# [3] = Metabolic stability in rat liver microsomes; format: in vitro ADME; settings: % of compound remaining after 30 minutes
# Procedure: as §2
# Aβ1-42 = biological target: T1, Aβ1-42 (Homo sapiens, UniProt P05067); assay: Aβ1-42 globulomer generation / oligomer formation (Hillen protocol), gel staining and western blot; format: biochemical
# T1 construct: β-amyloid polypeptides (Aβ 1-42, >98% pure); purchased Bachem (Bubendorf, Switzerland); host or cells: chemical synthesis
# Procedure: Aβ1-42 intermediates and globulomers were produced according to Barghorn et al. [J. Neurochem. 2005 November; 95(3):834-47]. Synthetic lyophilized β-amyloid polypeptides (Aβ 1-42, >98% pure) were purchased from Bachem (Bubendorf, Switzerland). To avoid pre-aggregation, synthetic lyophilized Aβ1-42 was pretreated with HFIP. Aβ1-42 was dissolved in 100% HFIP, sonicated for 20 seconds and incubated for 2 hours at 37° C. under shaking at 100 RPM. After evaporation in a speedVac, Aβ1-42 was re-suspended in DMSO, with or without the tested peptide, to 5 mM and diluted with 20 mM NaH2PO4, 140 mM NaCl, pH 7.4, to a final concentration of 400 μM, and 1/10 volume 2% SDS (final concentration of 0.2%). The Aβ globulomers were generated by further dilution with two volumes of H2O and incubation for 18 hours or more.
# To evaluate the effect of D-Trp-Aib analogs on the transformation of the Aβ1-42 into the toxic assemblies, the tested peptides were incubated with Aβ1-42 at increasing molar ratios, and the reaction mixtures were resolved on SDS-PAGE followed by western blot analysis by a specific anti Aβ antibody (6E10) (SIGNET).
# Aβ monomers = biological target: T2, Aβ monomers (Homo sapiens, UniProt P05067); assay: SPR binding assay (BIACORE X100); settings: immobilized Aβ monomers, 25° C., steady-state; mean ± SD; read-out: SPR binding IC50 [nM] +/− SD (repeats)
# T2 construct: Aβ monomers were covalently coupled to one flow cell of CM7 sensor chips
# Procedure: Surface Plasmon Resonance (SPR) studies were performed using a BIACORE X100 biosensor instrument (GE Lifesciences, Uppsala, Sweden), equipped with two flow cells on a sensor chip. Aβ monomers were covalently coupled to one flow cell of CM7 sensor chips (GE Lifesciences, Uppsala, Sweden) via primary amines using the Amine Coupling Kit (GE Lifesciences, Uppsala, Sweden). As a control, ethanolamine was immobilized on the reference channel. […] One RU represents about 1 pg/mm^2 of the analytes on the surface matrix of the sensor chip. […] The stock solutions were diluted 1:1000 in HBS-EP buffer which contains 0.01M HEPES, pH7.4, 0.15M NaCl, 3 mM EDTA, and 0.005% of surfactant P20. HBS-EP+0.1% (v/v) DMSO was used as assay running buffer. The test solutions were injected over the sensor chip in concentrations ranging from 0.1 nM to 300 nM at a flow rate of 10 μl/min for 180 seconds at 25° C. Concentrations were tested in duplicate. The RUs elicited by the compound injected into the ethanolamine control flow cell was set as reference response and subtracted from the RUs elicited by the same compound injected to the Aβ saturated flow cell. The relationships between each RU obtained at the steady state of binding (plateau of the binding curve) and each concentration of the compound were plotted. After the analyte injection was stopped, HBS-EP buffer was flowed over the chip for 180 s to allow the bound analyte to dissociate from the immobilized Aβ and the dissociation curves were obtained. After the dissociation phase, regeneration solution (1M NaCl, 50 mM NaOH) was injected and flowed over the chip for 30 seconds to remove the residual bound analytes from the immobilized Aβ. BIACORE X100 control software Ver 1.1 was used to record the binding curves and BIACORE X100 evaluation software Ver 1.1 to analyze the curves (plot each RU at the steady state vs. concentration of analyte, fit the plot, determine KD values). The dissociation equilibrium constant KD of the analyte to the immobilized Aβ was determined from the steady-state levels estimating the maximum RU Rmax and calculating the KD as the concentration of the compound that elicited one-half of the Rmax.
# T2 sequence (P05067 672-713 limits assumed): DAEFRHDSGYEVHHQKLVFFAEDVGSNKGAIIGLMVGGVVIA
# T1 sequence (P05067 672-713 limits assumed): as above
smiles,measurement,setting,value
CC(=O)NC(Cc1c[nH]c2ccccc12)C(=O)NC(C)(C)C(=O)O (stereo not drawn),efflux ratio,P-gp (human PGP),0.7
same,Papp A→B,human P-gp (PGP),15 nm/s
same,solubility,[1],253 µM
same,Metabolic Stability (%) HLM,[2],90%
same,Metabolic Stability (%) RLM,[3],>100%
CC(C)(NC(=O)C(Cc1c[nH]c2ccccc12)NC=O)C(=O)O (stereo not drawn),efflux ratio,P-gp (human PGP),0.7
same,Papp A→B,human P-gp (PGP),13 nm/s
same,solubility,[1],222 µM
same,Metabolic Stability (%) HLM,[2],87%
same,Metabolic Stability (%) RLM,[3],>100%
CC(=O)N(C)C(Cc1c[nH]c2ccccc12)C(=O)NC(C)(C)C(=O)O (stereo not drawn) (Ac-[ξNMeW]-[Aib]-OH),efflux ratio,P-gp (human PGP),0.8
same,Papp A→B,human P-gp (PGP),13 nm/s
same,solubility,[1],> 278 µM
CC(C)(NC(=O)C(N)Cc1c[nH]c2ccccc12)C(N)=O (stereo not drawn) (H-[ξW]-[Aib]-NH2),Papp A→B,human P-gp (PGP),16 nm/s
same,solubility,[1],> 355 µM
same,Metabolic Stability (%) HLM,[2],>100%
same,Metabolic Stability (%) RLM,[3],>100%
CC(C)(C)OC(=O)C(C)(C)NC(=O)[C@H](N)Cc1c[nH]c2ccccc12 [Compound 1] (H-[dW]-[Aib]-OtBu),inhibition of Aβ1-42 globulomer formation,Aβ1-42; 10:1 (inhibitor:Aβ peptide) molar ratio,inhibit
same,inhibition of Aβ1-42 globulomer formation,Aβ1-42; 20:1 (inhibitor:Aβ peptide) molar ratio,inhibit
CC(=O)N[C@H](Cc1c[nH]c2ccccc12)C(=O)NC(C)(C)C(=O)O [Compound A],IC50,Aβ monomers,2.8 ± 0.8 nM
CC(=O)N(C)[C@H](Cc1c[nH]c2ccccc12)C(=O)NC(C)(C)C(=O)O [Compound B] (Ac-[dNMeW]-[Aib]-OH),IC50,Aβ monomers,56.4 ± 32.7 nM
CC(C)(NC(=O)[C@@H](Cc1c[nH]c2ccccc12)NC=O)C(=O)O [Compound C],IC50,Aβ monomers,3.9 ± 0.1 nM
CNC(=O)C(C)(C)NC(=O)[C@H](N)Cc1c[nH]c2ccccc12 [Compound E] (H-[dW]-[Aib]-NHMe),IC50,Aβ monomers,40.2 ± 3.4 nM
CN(C)C(=O)C(C)(C)NC(=O)[C@H](N)Cc1c[nH]c2ccccc12 [Compound F] (H-[dW]-[Aib]-NMe2),IC50,Aβ monomers,4.2 nM
CN(C(=O)[C@@H](Cc1c[nH]c2ccccc12)NC(=O)OC(C)(C)C)C(C)(C)C(=O)O [Compound Q] (Boc-[dW]-[NMeAib]-OH),IC50,Aβ monomers,3.8 ± 1.4 nM
CC(=O)N[C@H](Cc1c[nH]c2ccccc12)C(=O)N(C)C(C)(C)C(=O)O [Compound R] (Ac-[dW]-[NMeAib]-OH),IC50,Aβ monomers,4.3 ± 1 nM
CC(C)(C)OC(=O)N/C(=C\c1c[nH]c2ccccc12)C(=O)NC(C)(C)C(N)=O [Compound T],IC50,Aβ monomers,1.5 ± 0.6 nM
CC(C)(C)OC(=O)N/C(=C\c1c[nH]c2ccccc12)C(=O)NC(C)(C)C(=O)O [Compound U],IC50,Aβ monomers,6.2 ± 1.9 nM
CNC(=O)C(C)(C)N(C)C(=O)[C@@H](Cc1c[nH]c2ccccc12)NC(C)=O [Compound V] (Ac-[dW]-[NMeAib]-NHMe),IC50,Aβ monomers,0.5 nM
CC(C)(C)OC(=O)N/C(=C\c1c[nH]c2ccccc12)C(=O)NC(C)(C)C(=O)O [drawing 63],efflux ratio,P-gp (human PGP),1.2
same,Papp A→B,human P-gp (PGP),21 nm/s
same,solubility,[1],> 280 µM
same,Metabolic Stability (%) HLM,[2],95%
same,Metabolic Stability (%) RLM,[3],81%
CC(C)(C)OC(=O)N/C(=C\c1c[nH]c2ccccc12)C(=O)NC(C)(C)C(N)=O [drawing 64],efflux ratio,P-gp (human PGP),1.6
same,Papp A→B,human P-gp (PGP),106 nm/s
same,solubility,[1],> 282 µM
CN(C(=O)[C@@H](Cc1c[nH]c2ccccc12)NC(=O)OC(C)(C)C)C(C)(C)C(=O)O [drawing 65] (Boc-[dW]-[NMeAib]-OH),efflux ratio,P-gp (human PGP),0.3
same,Papp A→B,human P-gp (PGP),14 nm/s
same,solubility,[1],239 µM
same,Metabolic Stability (%) HLM,[2],100%
same,Metabolic Stability (%) RLM,[3],87%
CC(=O)N[C@H](Cc1c[nH]c2ccccc12)C(=O)N(C)C(C)(C)C(=O)O [drawing 66] (Ac-[dW]-[NMeAib]-OH),efflux ratio,P-gp (human PGP),1
same,Papp A→B,human P-gp (PGP),7 nm/s
same,solubility,[1],> 286 µM
same,Metabolic Stability (%) HLM,[2],88%
same,Metabolic Stability (%) RLM,[3],>100%
CC(C)(NC(=O)C(N)Cc1c[nH]c2ccccc12)C(=O)O (stereo not drawn) [reference compound],Papp A→B,human P-gp (PGP),12 nm/s
same,solubility,[1],> 350 µM
same,Metabolic Stability (%) HLM,[2],>100%
same,Metabolic Stability (%) RLM,[3],>100%
